One assay concerns MCF10A ARID1A KO cells. Description: cell survival screen with clinically applicable kinase inhibitors. The class given is cell-based. The following applies: MCF10A system, ARID1A KO vs WT, ratios of Z-scores. From the text: FIG. 2: Generation of ARID1A KO cells in (A) GES1, (B) MCF10A, (C) OVCAR3, (D) Ratios of Z-scores, showing hits from preliminary FDA approved kinase inhibitor screen.
ARID1A Knockout (KO) cell lines were generated using CRISPR-Cas9 gene editing in multiple cellular contexts where ARID1A is lost-Gastric (GES1), Breast (MCF10A), and Ovarian (OVCAR3) (FIG. 2 A-C).

Assay [1] concerns GES1 ARID1A WT and KO cells. Put plainly: Cell titre blue assay in GES1 ARID1A WT and KO cells. It is filed as cell-based. The following applies: GES1 ARID1A WT vs KO. From the text:
(§1) This synthetic lethal interaction was validated using Volasertib in multiple isogenic ARID1A WT and KO cell lines, using cell proliferation and colony formation assays (FIG. 3 A-E).

The test system of assay [2] is MCF10A ARID1A WT and KO cells. Put plainly: Cell titre blue assay in MCF10A ARID1A WT and KO cells. The class given is cell-based. To be noted: MCF10A ARID1A WT vs KO.
Description: as §1

Assay [3] relates to GES1 ARID1A-WT and KO cells. Put plainly: colony formation assay in GES1 ARID1A-WT and KO cells. The class given is cell-based. To be noted: GES1 ARID1A-WT vs KO.
Description: as §1

In assay [4] the test system is OVCAR3 ARID1A WT and KO cells. Put plainly: Cell proliferation assays in OVCAR3 cells. It is filed as cell-based. The following applies: OVCAR3 ARID1A WT vs KO.
Description: as §1

Assay [5] deals with OVCAR3-ARID1A KO xenografts. Put plainly: mouse xenograft experiments with OVCAR3-ARID1A WT or KO cells. The class given is in vivo. The following applies: Nude (SCID) mice, 15 mg/kg body weight once per week for 4 weeks. As to the method:
Nude (SCID) mice received sub-cutaneous injections of OVCAR3-ARID1A WT or KO cells. Tumors were visible 10 days post injection, after which the animals were treated with Volasertib (15 mg/kg body weight) or vehicle once per week for 4 weeks. Body mass and tumor volumes were recorded twice per week. Mice were sacrificed at the end of 4 weeks of treatment and tumors were isolated and imaged, (B) Body mass measurements of mice measured twice per week, (C) Tumor volume measurements of mice measured twice per week, p<0.05, student's t-test, (D) Images of OVCAR3-ARID1A WT/KO tumors isolated from mice after sacrifice, (E) Dot plot of tumor area from D showing changes in tumor area in OVCAR3-ARID1A KO vs OVCAR3-ARID1A KO+volasertib treatment. Tumor area was calculated from the images in image J using the ruler to set scale and applying free hand tool to measure the tumor area.
as §1

For assay [6], the system named is GES1 ARID1A WT and KO cells. Description: mitochondrial depolarization measured using JC-1. It is filed as cell-based. The following applies: post treatment. An excerpt:
(§2) HSC70 was used as loading control.

The subject of assay [7] is GES1 ARID1A-WT and KO cells. Put plainly: Annexin-V staining (apoptosis). It is filed as cell-based.
Description: as §2

The test system of another assay is GES1 cells. Description: Western blots of cleaved PARP in GES1 cells. The following applies: GES1 whole cell lysates, indicated time points. It is filed as cell-based.
Description: as §2
(In general: A western blot detects proteins with antibodies after separation by electrophoresis.)

For another assay, the system named is OVCAR3 cells. Put plainly: Western blots of cleaved PARP in OVCAR3 cells. It is filed as cell-based. To be noted: OVCAR3 whole cell lysates, indicated time points.
Description: as §2

Assay [8] deals with GES1-ARID1A isogenic cell lines. Description: metabolomics by 1D NMR. The class given is cell-based. To be noted: GES1-ARID1A WT and KO. From the text: (B) Heat map of important metabolites up/down regulated in GES1-ARID1A WT and KO with and without volasertib treatment, as measured by 1D NMR.
In addition, ARID1A loss causes a dramatic alteration in transcriptome leading to up or down regulation of many important biological pathways (FIG. 6).

The test system of a further assay is cancer. To be noted: Phase II clinical trials; cited from earlier work.

“Also recorded” adds a separate entry of the source.

Take `COc1cc(C(=O)NC2CCN(C)CC2)c(F)cc1Nc1ncc2c(n1)N(C1CCCC1)CC(F)(F)C(=O)N2C` [TAK960]: in the assay with MCF10A ARID1A KO cells, the “sensitivity of cells with loss of ARID1A in cell survival screen” value is “preferentially sensitivity”.
Take `CC[C@@H]1C(=O)N(C)c2cnc(Nc3ccc(C(=O)N[C@H]4CC[C@H](N5CCN(CC6CC6)CC5)CC4)cc3OC)nc2N1C(C)C` [Volasertib]: the “synthetic lethality, cell titre blue assay” value in assay [1] was “synthetic lethality between ARID1A loss and Volasertib”; in [2], “synthetic lethality between ARID1A loss and Volasertib”. Further, in [3], the “synthetic lethality, colony formation assay” value was “synthetic lethality between ARID1A loss and Volasertib”. Besides, the “synthetic lethality, cell proliferation assays” value in assay [4] is “synthetic lethality between ARID1A loss and Volasertib”. In addition, the “anti-tumor activity on xenografts (tumor volume, tumor area)” value in assay [5] is reported as “Anti-tumor activity”; in assay [5] (15 mg/kg), “synthetically lethal relationship was also demonstrated”. In addition, the “mitochondrial depolarization (JC-1)” value in assay [6] is given as “markedly increases mitochondrial depolarization; also recorded: increased depolarization post Volasertib treatment in a time dependent manner”. In addition, the “apoptosis and cell killing” value in assay [7] (ARID1A KO cells) is “selective cell killing in ARID1A KO cells”. Moreover, the “apoptosis, Annexin-V positive cells” value in assay [7] (GES1 ARID1A-KO cells, post treatment) is “further increase post Volasertib treatment”. Also, the “cleaved PARP accumulation” value with GES1 cells and in the assay with OVCAR3 cells was “increased accumulation of cleaved PARP” in each case. Besides, the “changes in metabolic intermediates / metabolomics” value in assay [8] is “profound changes in the metabolomics; also recorded: exacerbated upon volasertib treatment”. Besides, the “clinical result as monotherapy” value in the assay with cancer was “encouraging results as monotherapy”.

The record behind these values is US20230416836A1, “METHOD FOR PREDICTING RESPONSIVENESS TO PLK1 INHIBITION” (National University of Singapore, priority 2020, published 2023).
